Data taken from PubChem BioAssay (NCI).
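Grown in 96-well plates, cells were treated for 48 hours with each compound at five concentrations. Insufficient inhibition: endpoint recorded as highest concentration tested. Abbreviation: GI50, concentration required for 50% inhibition of growth. The concentration for full growth arrest is given as TGI.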

Key:
Test in all cases: NCI tumour cell line growth inhibition, 48 h
786-0 renal = test system: 786-0 renal
A498 renal = test system: A498 renal
A549 NSCLC = test system: A549 NSCLC
ACHN renal = test system: ACHN renal
BT-549 breast = test system: BT-549 breast
CAKI-1 renal = test system: CAKI-1 renal
CCRF-CEM leukemia = test system: CCRF-CEM leukemia
COLO 205 colon = test system: COLO 205 colon
DU-145 prostate = test system: DU-145 prostate
HCC-2998 colon = test system: HCC-2998 colon
HCT-116 colon = test system: HCT-116 colon
HCT-15 colon = test system: HCT-15 colon
HOP-62 NSCLC = test system: HOP-62 NSCLC
HOP-92 NSCLC = test system: HOP-92 NSCLC
HS 578T breast = test system: HS 578T breast
HT29 colon = test system: HT29 colon
IGROV1 ovarian = test system: IGROV1 ovarian
K-562 leukemia = test system: K-562 leukemia
KM12 colon = test system: KM12 colon
LOX IMVI melanoma = test system: LOX IMVI melanoma
M14 melanoma = test system: M14 melanoma
MALME-3M melanoma = test system: MALME-3M melanoma
MCF7 breast = test system: MCF7 breast
MDA-MB-231 breast = test system: MDA-MB-231 breast
MDA-MB-435 = test system: MDA-MB-435
MOLT-4 leukemia = test system: MOLT-4 leukemia
NCI-H226 lung = test system: NCI-H226 lung
NCI-H23 lung = test system: NCI-H23 lung
NCI-H460 lung = test system: NCI-H460 lung
NCI-H522 lung = test system: NCI-H522 lung
NCI/ADR-RES ovarian = test system: NCI/ADR-RES ovarian
OVCAR-4 ovarian = test system: OVCAR-4 ovarian
OVCAR-5 ovarian = test system: OVCAR-5 ovarian
OVCAR-8 ovarian = test system: OVCAR-8 ovarian
PC-3 prostate = test system: PC-3 prostate
RPMI-8226 leukemia = test system: RPMI-8226 leukemia
RXF 393 renal = test system: RXF 393 renal
SF-268 CNS = test system: SF-268 CNS
SF-295 CNS = test system: SF-295 CNS
SF-539 CNS = test system: SF-539 CNS
SK-MEL-2 melanoma = test system: SK-MEL-2 melanoma
SK-MEL-28 melanoma = test system: SK-MEL-28 melanoma
SK-MEL-5 melanoma = test system: SK-MEL-5 melanoma
SK-OV-3 ovarian = test system: SK-OV-3 ovarian
SN12C renal = test system: SN12C renal
SNB-19 CNS = test system: SNB-19 CNS
SNB-75 CNS = test system: SNB-75 CNS
SR leukemia = test system: SR leukemia
SW-620 colon = test system: SW-620 colon
T-47D breast = test system: T-47D breast
TK-10 renal = test system: TK-10 renal
U251 CNS = test system: U251 CNS
UACC-257 melanoma = test system: UACC-257 melanoma
UACC-62 melanoma = test system: UACC-62 melanoma
UO-31 renal = test system: UO-31 renal
EKVX NSCLC = test system: EKVX NSCLC
HL-60(TB) leukemia = test system: HL-60(TB) leukemia
OVCAR-3 ovarian = test system: OVCAR-3 ovarian

## O=C1OC(C(O)CO)C(=O)C1=O (configuration not stated)
786-0 renal
  GI50: 3170 µM
  TGI: 8770 µM
A498 renal
  GI50: 2520 µM
  TGI: 8510 µM
A549 NSCLC
  GI50: 9790 µM
  TGI: > 10000 µM
ACHN renal
  GI50: 2860 µM
  TGI: > 10000 µM
BT-549 breast
  GI50: 4320 µM
  TGI: > 10000 µM
CAKI-1 renal
  GI50: 3220 µM
  TGI: 9630 µM
CCRF-CEM leukemia
  GI50: 2940 µM
  TGI: > 10000 µM
COLO 205 colon
  GI50: 2800 µM
  TGI: 6730 µM
DU-145 prostate
  GI50: 1720 µM
  TGI: 3130 µM
HCC-2998 colon
  GI50: > 10000 µM
  TGI: > 10000 µM
HCT-116 colon
  GI50: 2460 µM
  TGI: 6520 µM
HCT-15 colon
  GI50: 3420 µM
  TGI: > 10000 µM
HOP-62 NSCLC
  GI50: 3720 µM
  TGI: 8570 µM
HOP-92 NSCLC
  GI50: 2060 µM
  TGI: 4230 µM
HS 578T breast
  GI50: 3250 µM
  TGI: 9940 µM
HT29 colon
  GI50: 4240 µM
  TGI: > 10000 µM
IGROV1 ovarian
  GI50: 2350 µM
  TGI: 5170 µM
K-562 leukemia
  GI50: 2860 µM
  TGI: 9080 µM
KM12 colon
  GI50: 3500 µM
  TGI: > 10000 µM
LOX IMVI melanoma
  GI50: 1950 µM
  TGI: 4990 µM
M14 melanoma
  GI50: 6700 µM
  TGI: > 10000 µM
MALME-3M melanoma
  GI50: 2070 µM
  TGI: 4870 µM
MCF7 breast
  GI50: 2350 µM
  TGI: 5860 µM
MDA-MB-231 breast
  GI50: 2720 µM
  TGI: > 10000 µM
MDA-MB-435
  GI50: 2120 µM
  TGI: 4290 µM
MOLT-4 leukemia
  GI50: 4120 µM
  TGI: > 10000 µM
NCI-H226 lung
  GI50: > 10000 µM
  TGI: > 10000 µM
NCI-H23 lung
  GI50: 4680 µM
  TGI: > 10000 µM
NCI-H460 lung
  GI50: 3540 µM
  TGI: > 10000 µM
NCI-H522 lung
  GI50: 1850 µM
  TGI: 3460 µM
NCI/ADR-RES ovarian
  GI50: 7060 µM
  TGI: > 10000 µM
OVCAR-4 ovarian
  GI50: 5580 µM
  TGI: > 10000 µM
OVCAR-5 ovarian
  GI50: 2050 µM
  TGI: 4330 µM
OVCAR-8 ovarian
  GI50: 5270 µM
  TGI: > 10000 µM
PC-3 prostate
  GI50: 4410 µM
  TGI: > 10000 µM
RPMI-8226 leukemia
  GI50: 2460 µM
  TGI: 8420 µM
RXF 393 renal
  GI50: 1700 µM
  TGI: 3210 µM
SF-268 CNS
  GI50: 2720 µM
  TGI: 6600 µM
SF-295 CNS
  GI50: 7430 µM
  TGI: > 10000 µM
SF-539 CNS
  GI50: 2490 µM
  TGI: 5440 µM
SK-MEL-2 melanoma
  GI50: > 10000 µM
  TGI: > 10000 µM
SK-MEL-28 melanoma
  GI50: > 10000 µM
  TGI: > 10000 µM
SK-MEL-5 melanoma
  GI50: > 10000 µM
  TGI: > 10000 µM
SK-OV-3 ovarian
  GI50: 2910 µM
  TGI: 7200 µM
SN12C renal
  GI50: 2530 µM
  TGI: 7090 µM
SNB-19 CNS
  GI50: 8280 µM
  TGI: > 10000 µM
SNB-75 CNS
  GI50: 6160 µM
  TGI: > 10000 µM
SR leukemia
  GI50: 3860 µM
  TGI: > 10000 µM
SW-620 colon
  GI50: 2070 µM
  TGI: 5080 µM
T-47D breast
  GI50: 2790 µM
  TGI: 7700 µM
TK-10 renal
  GI50: 2080 µM
  TGI: 3570 µM
U251 CNS
  GI50: 5090 µM
  TGI: > 10000 µM
UACC-257 melanoma
  GI50: > 10000 µM
  TGI: > 10000 µM
UACC-62 melanoma
  GI50: 4330 µM
  TGI: > 10000 µM
UO-31 renal
  GI50: 1850 µM
  TGI: 4600 µM

## COc1nc2ccccc2cc1-c1nc2c(cnn2-c2ccc(Br)cc2)c(=O)[nH]1
786-0 renal
  GI50: 0.0403 µM
  TGI: 8.6 µM
A498 renal
  GI50: 0.0139 µM
  TGI: 0.521 µM
A549 NSCLC
  GI50: 0.0837 µM
  TGI: > 50 µM
ACHN renal
  GI50: 0.0345 µM
  TGI: > 50 µM
BT-549 breast
  GI50: 0.156 µM
  TGI: > 25.1 µM
CAKI-1 renal
  GI50: 0.0196 µM
  TGI: > 50 µM
CCRF-CEM leukemia
  GI50: 0.0238 µM
  TGI: > 31.8 µM
COLO 205 colon
  GI50: 0.0545 µM
DU-145 prostate
  GI50: 0.0344 µM
  TGI: 13.8 µM
EKVX NSCLC
  GI50: 0.0817 µM
  TGI: > 50 µM
HCC-2998 colon
  GI50: 0.587 µM
  TGI: > 50 µM
HCT-116 colon
  GI50: 0.0196 µM
  TGI: > 50 µM
HCT-15 colon
  GI50: 0.0261 µM
  TGI: > 50 µM
HL-60(TB) leukemia
  GI50: 0.0158 µM
  TGI: 0.0815 µM
HOP-62 NSCLC
  GI50: 0.0363 µM
  TGI: 7.39 µM
HOP-92 NSCLC
  GI50: 0.127 µM
  TGI: > 28.3 µM
HS 578T breast
  GI50: 0.0282 µM
  TGI: 4.71 µM
HT29 colon
  GI50: 0.0191 µM
  TGI: > 50 µM
IGROV1 ovarian
  GI50: 0.0591 µM
  TGI: > 50 µM
K-562 leukemia
  GI50: 0.0182 µM
  TGI: 13.4 µM
KM12 colon
  GI50: 0.0226 µM
  TGI: > 50 µM
LOX IMVI melanoma
  GI50: 0.0276 µM
  TGI: > 50 µM
M14 melanoma
  GI50: 0.0204 µM
  TGI: 2.33 µM
MALME-3M melanoma
  GI50: 0.519 µM
  TGI: > 50 µM
MCF7 breast
  GI50: 0.0201 µM
  TGI: > 50 µM
MDA-MB-231 breast
  GI50: 0.133 µM
  TGI: > 27.4 µM
MDA-MB-435
  GI50: 0.00957 µM
  TGI: 0.024 µM
MOLT-4 leukemia
  GI50: 0.0879 µM
  TGI: > 50 µM
NCI-H226 lung
  GI50: 0.51 µM
  TGI: > 50 µM
NCI-H23 lung
  GI50: 0.0825 µM
  TGI: 10.9 µM
NCI-H460 lung
  GI50: 0.0241 µM
  TGI: > 50 µM
NCI-H522 lung
  GI50: 0.0153 µM
NCI/ADR-RES ovarian
  GI50: 0.0186 µM
  TGI: 1.58 µM
OVCAR-3 ovarian
  GI50: 0.0171 µM
  TGI: 0.219 µM
OVCAR-4 ovarian
  TGI: > 50 µM
OVCAR-5 ovarian
  GI50: 0.798 µM
  TGI: > 50 µM
OVCAR-8 ovarian
  GI50: 0.0577 µM
  TGI: > 50 µM
PC-3 prostate
  GI50: 0.0231 µM
  TGI: > 50 µM
RPMI-8226 leukemia
  GI50: 0.0402 µM
  TGI: 6.79 µM
RXF 393 renal
  GI50: 0.0163 µM
  TGI: 0.245 µM
SF-268 CNS
  GI50: 0.131 µM
  TGI: > 50 µM
SF-295 CNS
  GI50: 0.0195 µM
  TGI: 1.62 µM
SF-539 CNS
  GI50: 0.0194 µM
  TGI: 1.63 µM
SK-MEL-2 melanoma
  GI50: 0.0946 µM
  TGI: 9.22 µM
SK-MEL-28 melanoma
  GI50: 0.361 µM
  TGI: > 50 µM
SK-MEL-5 melanoma
  GI50: 0.0293 µM
SK-OV-3 ovarian
  GI50: 0.0638 µM
  TGI: 24.5 µM
SN12C renal
  GI50: 0.0739 µM
  TGI: > 50 µM
SNB-19 CNS
  GI50: 0.0244 µM
  TGI: 15.1 µM
SNB-75 CNS
  GI50: 0.0161 µM
  TGI: 1.46 µM
SR leukemia
  GI50: 0.0116 µM
  TGI: 5.41 µM
SW-620 colon
  GI50: 0.0228 µM
  TGI: > 50 µM
T-47D breast
  GI50: 0.0413 µM
  TGI: > 50 µM
TK-10 renal
  GI50: 0.21 µM
  TGI: 8.8 µM
U251 CNS
  GI50: 0.0241 µM
  TGI: 7.42 µM
UACC-257 melanoma
  GI50: 6.77 µM
  TGI: > 50 µM
UACC-62 melanoma
  GI50: 0.0234 µM
  TGI: > 50 µM
UO-31 renal
  GI50: 0.0603 µM
  TGI: > 50 µM
